Assay results from BindingDB's records for doi:10.1002/cbic.201000376 (Gyeongsang National University, 2010).
pIC50, pKi: −log10 of the molar value.

molecular target: Alpha-glucosidase MAL12 (Saccharomyces cerevisiae (strain ATCC 204508 / S288c), UniProt P53341); test: Inhibition Assay
Method: All enzymatic activities were determined by using the appropriate substrate (p-nitrophenyl-alpha-D-glucopyranoside, p-nitrophenyl-beta-D-gulcopyranoside, o-nitrophenyl-alpha-D-manno-pyranoside, p-nitrohenyl-alpha-D-galactopyranoside and strach at the pH or each enzyme.

Chain of Alpha-glucosidase MAL12 (P53341 whole entry): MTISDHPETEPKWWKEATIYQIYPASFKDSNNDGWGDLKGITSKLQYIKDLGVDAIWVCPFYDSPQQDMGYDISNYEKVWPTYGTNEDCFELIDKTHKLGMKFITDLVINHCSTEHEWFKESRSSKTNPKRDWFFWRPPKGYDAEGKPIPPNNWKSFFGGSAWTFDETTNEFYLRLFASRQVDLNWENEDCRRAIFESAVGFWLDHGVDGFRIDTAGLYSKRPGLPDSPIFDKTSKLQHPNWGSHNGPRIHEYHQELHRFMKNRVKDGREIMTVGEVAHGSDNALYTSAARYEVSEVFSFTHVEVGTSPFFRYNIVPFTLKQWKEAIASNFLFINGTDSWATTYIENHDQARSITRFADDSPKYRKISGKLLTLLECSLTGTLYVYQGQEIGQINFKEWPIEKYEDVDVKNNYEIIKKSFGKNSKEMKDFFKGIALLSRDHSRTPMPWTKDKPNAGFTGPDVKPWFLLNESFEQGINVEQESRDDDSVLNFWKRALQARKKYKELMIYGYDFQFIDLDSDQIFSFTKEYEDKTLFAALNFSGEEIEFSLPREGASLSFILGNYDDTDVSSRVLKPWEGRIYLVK

Compound	pIC50	pKi
Nc1ccc(/C=C/c2ccc(O)cc2)cc1	< 3.70	–
Oc1ccc(/C=C/c2cc(O)cc(O)c2)cc1 [5-[(E)-2-(4-hydroxyphenyl)ethenyl]benzene-1,3-diol]	4.58	4.67
CNc1ccc(/C=C/c2ccc(O)c(O)c2)cc1 [Stilbene derivative, 4]	< 3.70	–
CC(=O)Nc1ccc(/C=C/c2ccc(O)c(O)c2)cc1 [Stilbene derivative, 5]	< 3.70	–
O=C(Nc1ccccc1)Nc1ccc(/C=C/c2ccc(O)c(O)c2)cc1 [Urea derivative, 6]	4.38	4.97
COc1ccc(NC(=O)Nc2ccc(/C=C/c3ccc(O)c(O)c3)cc2)cc1 [Urea derivative, 7]	4.71	4.98
Nc1ccc(NC(=O)Nc2ccc(/C=C/c3ccc(O)c(O)c3)cc2)cc1 [Urea derivative, 8]	4.16	–
Cc1ccc(NC(=O)Nc2ccc(/C=C/c3ccc(O)c(O)c3)cc2)cc1 [Urea derivative, 9]	4.20	–
O=C(Nc1ccc(/C=C/c2ccc(O)c(O)c2)cc1)Nc1ccc(C(F)(F)F)cc1 [Urea derivative, 10]	4.54	4.92
O=C(Nc1ccc(F)cc1)Nc1ccc(/C=C/c2ccc(O)c(O)c2)cc1 [Urea derivative, 11]	4.70	5.14
O=C(Nc1ccc(/C=C/c2ccc(O)c(O)c2)cc1)Nc1ccc(F)cc1F [Urea derivative, 12]	5.08	5.49
O=C(Nc1ccc(Cl)cc1)Nc1ccc(/C=C/c2ccc(O)c(O)c2)cc1 [Urea derivative, 13]	4.84	5.34
O=C(Nc1ccccc1)Nc1ccc(/C=C/c2ccc(O)cc2)cc1 [Urea derivative, 14]	4.54	4.77
COc1ccc(NC(=O)Nc2ccc(/C=C/c3ccc(O)cc3)cc2)cc1 [Urea derivative, 15]	4.22	–
O=C(Nc1ccc(/C=C/c2ccc(O)cc2)cc1)Nc1ccc(F)cc1F [Urea derivative, 16]	4.73	5.03
O=C(Nc1ccccc1)Nc1ccc(/C=C/c2cc(O)cc(O)c2)cc1 [Urea derivative, 17]	4.23	–
COc1ccc(NC(=O)Nc2ccc(/C=C/c3cc(O)cc(O)c3)cc2)cc1 [Urea derivative, 18]	3.98	–
O=C(Nc1ccc(/C=C/c2cc(O)cc(O)c2)cc1)Nc1ccc(F)cc1F [Urea derivative, 19]	4.19	–
